Measured values as given in patent US6686336B2, “N-terminal D(-)-penicillamine peptides as aldehyde sequestration agents” (Federal Government as represented by the Department of …, priority 2000, dated 2004).

Tests used:
[1] = cited from earlier work; for AcH sequestration (trapping) in vivo: earlier studies (Nagasawa et al., J. Med. Chem, 1987)
rat hepatocytes = test: Test B: Sequestration of AcH in a hepatocyte system; type: cell-based; details: ethanol 20 mM; for lowering of the concentration of ethanol-derived AcH: compound 1.0 mM (1/20 molar concentration of ethanol), at two hrs, vs ethanol control without dipeptide, FIG. 4
Protocol: Test B: Sequestration of AcH in a hepatocyte system.
Hepatocytes from male Wistar rats were isolated and cultured under conditions previously described. On culture day two, ethanol and representative compounds of the invention were added to the culture medium to final concentrations of 20 mM and 1.0 mM, respectively. After 2 hours, 1.0 ml of medium was removed and added to a semicarbazide/sodium azide mixture and frozen until assayed for AcH by gas chromatography. AcH was measured before the addition of ethanol and representative compounds of the invention and 2 hours after incubation, and the values compared against ethanol control without dipeptides. In experiments with cyanamide (to inhibit AlDH), the cyanamide was added with the ethanol to give a final concentration in the culture medium of 50 mM. Results are depicted in FIGS. 4 and 5.

[2] = Test A: Sequestration of AcH in a cell-free system; type: biochemical; details: AcH 40 nmol, compound 400 nmol, 4.0 mM DTT, pH 7.4, 30 minute incubation at 37° C.; compared with 1 (positive control); FIG. 3
Protocol: Test A: Sequestration of AcH in a cell-free system. AcH (40 nmol) was incubated without (control) and with representative compounds of the invention (400 nmol) in a reaction mixture containing 4.0 mM dithiothreitol (DTT) and 40 mM potassium phosphate buffer (pH 7.4) in a total volume of 1.2 ml. The AcH remaining after a 30 minute incubation period at 37° C. was quantified by headspace GC analysis. DTT was included in the reaction mixture to maintain the thiols in their reduced state.

Compound	melting point	AcH sequestering activity (AcH remaining by headspace GC) [2]	further results
CC(C)[C@H](NC(=O)[C@H](N)C(C)(C)S)C(=O)O.Cl	263 to 265.5 °C (dec.)	–	–
NC(C(=O)O)C1(S)CCCC1 (racemic) [Compound 2, β,β-tetramethylene-DL-cysteine]	–	–	AcH sequestration (trapping) in vivo [1]: best β-mercapto-α-amino acid sequestration agents for AcH in vivo
CC(C)(S)[C@@H](N)C(=O)O [Compound 1, D(−)-penicillamine]	–	–	AcH sequestration (trapping) in vivo [1]: best β-mercapto-α-amino acid sequestration agents for AcH in vivo
CC(C)(S)[C@@H](N)C(=O)NCC(=O)O.Cl [Compound 6a, D-Penicillamylglycine Hydrochloride]	67 to 71 °C	–	lowering of the concentration of ethanol-derived AcH (rat hepatocytes): 79%; reduction of ethanol-derived AcH concentration in presence of cyanamide (rat hepatocytes; compound 1.0 mM, cyanamide (AlDH inhibitor) 50 mM, 2 hours, vs control without dipeptide, FIG. 5): 33%
CC(N)(CC(=O)[C@H](N)C(C)(C)S)C(=O)O.Cl (stereo partly drawn) [Compound 6c, D-Penicillamyl-α-aminoisobutyric acid hydrochloride]	145 to 148 °C	–	–
CC(C)(S)[C@@H](N)C(=O)NCCC(=O)O.Cl [Compound 6d, D-Penicillamyl-β-alanine Hydrochloride]	71 to 75 °C	–	lowering of the concentration of ethanol-derived AcH (rat hepatocytes): 84%
N[C@@H](CCS)C(=O)O [L-Homocysteine]	–	comparable to 1	AcH sequestration (trapping) in vivo [1]: not to be an effective AcH-trapping agent in vivo; metabolism in vivo ([1]; given as reason for lack of AcH trapping): metabolized too rapidly in vivo
CSCC[C@H](N)C(=O)O [Methionine]	–	totally without AcH sequestering activity	–
N#CN [cyanamide]	–	–	increase in ethanol-derived AcH (rat hepatocytes; cyanamide in incubation medium (50 mM), control without dipeptide, FIG. 5): 45 fold
N[C@@H](CO)C(=O)O [serine]	–	totally without AcH sequestering activity	–
C[C@@H](O)[C@H](N)C(=O)O [threonine]	–	totally without AcH sequestering activity	–
